Patent US20090099029A1, “Methods and substrates for conducting assays” (Invitrogen Corporation, priority 2005, published 2009)
Like-named read-outs stand apart in the source and are kept apart here.

Tests used:
Assay in all cases: Further analysis of a plurality of inhibitors and a plurality of kinases (Table 5 inhibition results)
Type in all cases: biochemical
Set-up in all cases: scale not given here
kinases of Table 5 [1] = biological target: kinases of Table 5 (Homo sapiens, UniProt P06239); conditions: kinase LCK (Part I, plate A6, Domain 0)
From the text: (§1) The wash solution is then discarded.

kinases of Table 5 [2] = biological target: kinases of Table 5 (Homo sapiens, UniProt P11309)
From the text: as §1

kinases of Table 5 [3] = biological target: kinases of Table 5 (Homo sapiens, UniProt P11362); conditions: inhibitor 100 uM; for Inhibition level: kinase FGFR1; for Inhibition Results (Level): kinase FGFR1 (Part II, plate D12, Domain 1)
From the text: as §1

kinases of Table 5 [4] = biological target: T1, kinases of Table 5 (Homo sapiens, UniProt P51813); conditions: inhibitor 100 uM; for Inhibition level: kinase BMX; for Inhibition Results (Level): kinase BMX (Part II, plate B12, Domain 1)
T1 sequence (P51813 1-675): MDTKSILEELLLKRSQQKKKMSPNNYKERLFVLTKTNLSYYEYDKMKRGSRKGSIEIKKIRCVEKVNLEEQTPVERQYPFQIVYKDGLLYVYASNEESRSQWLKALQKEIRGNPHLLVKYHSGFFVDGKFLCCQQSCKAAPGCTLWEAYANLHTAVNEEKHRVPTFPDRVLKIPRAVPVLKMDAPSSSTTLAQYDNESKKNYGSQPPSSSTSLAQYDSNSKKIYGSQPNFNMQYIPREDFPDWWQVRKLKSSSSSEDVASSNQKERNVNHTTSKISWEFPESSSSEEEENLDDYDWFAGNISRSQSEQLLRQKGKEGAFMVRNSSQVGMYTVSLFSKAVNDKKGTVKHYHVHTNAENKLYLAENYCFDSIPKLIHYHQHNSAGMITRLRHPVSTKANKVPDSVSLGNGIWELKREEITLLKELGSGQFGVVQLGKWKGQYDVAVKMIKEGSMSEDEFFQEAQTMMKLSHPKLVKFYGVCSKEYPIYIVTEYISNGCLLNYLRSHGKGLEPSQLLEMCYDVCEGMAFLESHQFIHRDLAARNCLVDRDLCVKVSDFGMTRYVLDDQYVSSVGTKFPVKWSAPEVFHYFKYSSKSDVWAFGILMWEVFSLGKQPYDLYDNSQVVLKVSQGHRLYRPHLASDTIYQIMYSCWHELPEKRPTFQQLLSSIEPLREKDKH
From the text: as §1

kinases of Table 5 [5] = biological target: kinases of Table 5 (Homo sapiens, UniProt Q05655); conditions: for Inhibition level: kinase PRKCD; for Inhibition Results (Level): kinase PRKCD (Part II, plate B2, Domain 0)
From the text: as §1

kinases of Table 5 [6] = biological target: kinases of Table 5 (Homo sapiens, UniProt Q13557)
From the text: as §1

kinases of Table 5 [7] = biological target: kinases of Table 5 (Homo sapiens, UniProt Q86UE8); conditions: kinase TLK2 (Part I, plate C8, Domain 1)
From the text: as §1

kinases of Table 5 [8] = biological target: T2, kinases of Table 5 (Homo sapiens, UniProt Q92630); conditions: for Inhibition level: kinase DYRK2; for Inhibition Results (Level): kinase DYRK2 (Part II, plate D11, Domain 1)
T2 sequence (Q92630 1-601): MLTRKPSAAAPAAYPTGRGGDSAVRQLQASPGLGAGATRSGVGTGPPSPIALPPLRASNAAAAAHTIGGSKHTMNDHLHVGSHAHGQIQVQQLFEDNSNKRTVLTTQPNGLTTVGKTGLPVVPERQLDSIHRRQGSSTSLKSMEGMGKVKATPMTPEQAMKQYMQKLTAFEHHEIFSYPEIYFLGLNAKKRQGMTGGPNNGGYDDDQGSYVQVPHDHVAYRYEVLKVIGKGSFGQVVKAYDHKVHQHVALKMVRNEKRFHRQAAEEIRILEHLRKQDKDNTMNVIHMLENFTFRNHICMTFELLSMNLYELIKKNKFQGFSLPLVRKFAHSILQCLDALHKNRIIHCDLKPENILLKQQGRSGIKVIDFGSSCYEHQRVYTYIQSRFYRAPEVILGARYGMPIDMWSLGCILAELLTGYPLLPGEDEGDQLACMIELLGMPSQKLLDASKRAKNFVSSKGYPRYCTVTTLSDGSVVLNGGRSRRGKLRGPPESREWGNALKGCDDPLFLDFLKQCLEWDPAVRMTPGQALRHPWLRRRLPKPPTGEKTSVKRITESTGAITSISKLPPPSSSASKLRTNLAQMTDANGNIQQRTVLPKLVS
From the text: as §1

kinases of Table 5 [9] = biological target: T3, kinases of Table 5 (Homo sapiens, UniProt Q96KB5); conditions: kinase TOPK (Part I, plate G7, Domain 1)
T3 sequence (Q96KB5 1-322): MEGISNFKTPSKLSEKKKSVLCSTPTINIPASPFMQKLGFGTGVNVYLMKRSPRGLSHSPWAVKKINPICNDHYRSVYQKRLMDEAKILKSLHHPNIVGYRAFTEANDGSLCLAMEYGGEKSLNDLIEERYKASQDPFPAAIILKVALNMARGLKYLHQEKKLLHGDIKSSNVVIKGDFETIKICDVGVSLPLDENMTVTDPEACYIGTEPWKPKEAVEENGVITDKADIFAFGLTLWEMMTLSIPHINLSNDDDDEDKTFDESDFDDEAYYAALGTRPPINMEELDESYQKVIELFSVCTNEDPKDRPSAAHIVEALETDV
From the text: as §1

kinases of Table 5 [10] = biological target: T4, kinases of Table 5 (Homo sapiens, UniProt Q9UQB9); conditions: kinase STK13 (Part I, plate G11, Domain 1); inhibitor 100 uM
T4 sequence (Q9UQB9 1-309): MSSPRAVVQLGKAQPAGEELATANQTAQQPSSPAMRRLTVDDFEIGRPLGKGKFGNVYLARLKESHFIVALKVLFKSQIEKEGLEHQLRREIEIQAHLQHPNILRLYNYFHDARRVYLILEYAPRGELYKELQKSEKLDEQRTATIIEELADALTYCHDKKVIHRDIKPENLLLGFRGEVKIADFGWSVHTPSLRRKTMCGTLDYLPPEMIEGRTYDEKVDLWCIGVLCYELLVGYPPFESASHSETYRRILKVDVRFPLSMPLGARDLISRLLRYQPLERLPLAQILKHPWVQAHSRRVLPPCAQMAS
From the text: as §1

kinases of Table 5 [11] = biological target: kinases of Table 5 (Homo sapiens, UniProt Q9Y6R4); conditions: kinase MAP3K4 (Part I, plate E7, Domain 1); inhibitor 100 uM
From the text: as §1

[12] = kinase PIM1 (Part I, plate C2, Domain 1), inhibitor 100 uM
[13] = kinase CAMK2D, inhibitor 100 uM
[14] = kinase CAMK2D, concentration not given

kinases of Table 5 (Homo sapiens, UniProt Q13557), sequence (Q13557 whole entry): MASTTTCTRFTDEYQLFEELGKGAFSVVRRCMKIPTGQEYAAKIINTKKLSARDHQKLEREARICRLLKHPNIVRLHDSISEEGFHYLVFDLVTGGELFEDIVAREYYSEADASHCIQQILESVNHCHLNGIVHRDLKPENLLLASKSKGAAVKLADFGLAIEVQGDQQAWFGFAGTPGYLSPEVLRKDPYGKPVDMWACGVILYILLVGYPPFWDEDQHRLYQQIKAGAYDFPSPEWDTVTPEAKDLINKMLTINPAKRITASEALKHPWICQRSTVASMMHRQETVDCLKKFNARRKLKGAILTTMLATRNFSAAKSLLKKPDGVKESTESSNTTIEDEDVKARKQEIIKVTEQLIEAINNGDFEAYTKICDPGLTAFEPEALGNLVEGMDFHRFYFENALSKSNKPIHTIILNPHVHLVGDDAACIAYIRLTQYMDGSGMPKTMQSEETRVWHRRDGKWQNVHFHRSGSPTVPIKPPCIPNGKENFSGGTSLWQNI
kinases of Table 5 (Homo sapiens, UniProt Q9Y6R4), sequence (Q9Y6R4 whole entry): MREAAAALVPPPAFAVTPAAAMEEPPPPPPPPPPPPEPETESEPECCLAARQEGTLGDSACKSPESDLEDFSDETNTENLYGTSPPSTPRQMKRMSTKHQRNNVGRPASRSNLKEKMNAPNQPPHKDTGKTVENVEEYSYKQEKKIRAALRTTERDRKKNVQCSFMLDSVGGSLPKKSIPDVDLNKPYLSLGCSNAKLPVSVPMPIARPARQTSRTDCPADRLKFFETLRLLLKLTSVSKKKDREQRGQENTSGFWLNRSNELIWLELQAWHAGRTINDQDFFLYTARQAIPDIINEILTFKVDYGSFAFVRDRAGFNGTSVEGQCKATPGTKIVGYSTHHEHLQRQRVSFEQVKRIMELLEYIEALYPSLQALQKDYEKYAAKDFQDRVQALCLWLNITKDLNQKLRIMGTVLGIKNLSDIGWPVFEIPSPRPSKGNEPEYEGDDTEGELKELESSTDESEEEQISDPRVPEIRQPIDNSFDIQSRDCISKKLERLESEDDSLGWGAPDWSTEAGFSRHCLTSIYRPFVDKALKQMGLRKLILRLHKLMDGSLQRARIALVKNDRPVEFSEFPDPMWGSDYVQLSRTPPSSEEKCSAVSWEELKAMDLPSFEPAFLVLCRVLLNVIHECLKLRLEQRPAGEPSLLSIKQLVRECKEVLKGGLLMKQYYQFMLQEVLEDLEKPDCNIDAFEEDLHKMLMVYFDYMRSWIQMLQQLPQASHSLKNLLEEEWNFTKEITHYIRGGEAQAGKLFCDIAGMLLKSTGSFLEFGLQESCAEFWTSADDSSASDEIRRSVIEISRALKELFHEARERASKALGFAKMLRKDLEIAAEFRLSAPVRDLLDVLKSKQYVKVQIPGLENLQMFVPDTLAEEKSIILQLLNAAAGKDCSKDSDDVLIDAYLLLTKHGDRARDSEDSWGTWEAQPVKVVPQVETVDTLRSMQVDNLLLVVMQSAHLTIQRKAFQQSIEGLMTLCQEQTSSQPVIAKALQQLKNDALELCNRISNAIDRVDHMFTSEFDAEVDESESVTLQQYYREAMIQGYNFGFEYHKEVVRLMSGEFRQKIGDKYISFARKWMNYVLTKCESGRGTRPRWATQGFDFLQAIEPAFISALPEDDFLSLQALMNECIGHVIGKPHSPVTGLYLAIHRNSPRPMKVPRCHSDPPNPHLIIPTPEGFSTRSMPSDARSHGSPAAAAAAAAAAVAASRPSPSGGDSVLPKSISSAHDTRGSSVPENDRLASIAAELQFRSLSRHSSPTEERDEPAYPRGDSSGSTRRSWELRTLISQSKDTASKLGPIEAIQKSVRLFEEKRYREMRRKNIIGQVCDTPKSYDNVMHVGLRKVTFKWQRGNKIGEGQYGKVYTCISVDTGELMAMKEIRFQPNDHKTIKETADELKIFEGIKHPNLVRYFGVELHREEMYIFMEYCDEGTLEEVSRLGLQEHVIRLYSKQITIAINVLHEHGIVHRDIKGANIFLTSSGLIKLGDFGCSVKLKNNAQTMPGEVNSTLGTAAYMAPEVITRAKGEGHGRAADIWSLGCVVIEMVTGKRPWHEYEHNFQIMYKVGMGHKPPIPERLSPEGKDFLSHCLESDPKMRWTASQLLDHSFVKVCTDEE
kinases of Table 5 (Homo sapiens, UniProt P11309), sequence (P11309 whole entry): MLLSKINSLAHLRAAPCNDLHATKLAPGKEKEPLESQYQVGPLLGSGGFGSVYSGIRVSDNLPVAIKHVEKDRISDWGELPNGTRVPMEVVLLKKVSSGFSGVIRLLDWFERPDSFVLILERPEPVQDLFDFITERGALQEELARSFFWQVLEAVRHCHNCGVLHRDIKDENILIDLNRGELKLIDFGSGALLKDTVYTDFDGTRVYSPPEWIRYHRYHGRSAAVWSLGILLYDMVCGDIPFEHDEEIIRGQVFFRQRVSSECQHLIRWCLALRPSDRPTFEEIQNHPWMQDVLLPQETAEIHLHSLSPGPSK
kinases of Table 5 (Homo sapiens, UniProt Q86UE8), sequence (Q86UE8 whole entry): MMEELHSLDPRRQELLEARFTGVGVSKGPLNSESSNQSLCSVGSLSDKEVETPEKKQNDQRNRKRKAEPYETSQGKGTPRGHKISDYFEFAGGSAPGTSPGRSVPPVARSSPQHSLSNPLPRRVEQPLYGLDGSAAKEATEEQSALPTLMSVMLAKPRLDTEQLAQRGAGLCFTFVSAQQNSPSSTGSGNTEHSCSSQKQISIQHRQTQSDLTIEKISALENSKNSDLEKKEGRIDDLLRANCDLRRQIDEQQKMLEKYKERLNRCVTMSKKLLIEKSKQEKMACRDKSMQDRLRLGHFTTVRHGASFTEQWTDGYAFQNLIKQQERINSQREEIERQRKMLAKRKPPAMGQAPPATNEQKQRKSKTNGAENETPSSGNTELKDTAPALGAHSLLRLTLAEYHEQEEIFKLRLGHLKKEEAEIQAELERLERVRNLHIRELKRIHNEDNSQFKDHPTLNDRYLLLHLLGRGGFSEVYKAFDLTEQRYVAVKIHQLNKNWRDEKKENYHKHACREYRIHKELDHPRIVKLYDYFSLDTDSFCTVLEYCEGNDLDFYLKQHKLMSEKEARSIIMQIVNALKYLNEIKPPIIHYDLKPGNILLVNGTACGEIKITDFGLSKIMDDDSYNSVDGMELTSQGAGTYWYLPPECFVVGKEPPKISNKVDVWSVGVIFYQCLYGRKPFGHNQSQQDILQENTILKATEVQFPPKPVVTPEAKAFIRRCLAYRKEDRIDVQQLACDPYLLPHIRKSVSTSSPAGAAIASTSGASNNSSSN
kinases of Table 5 (Homo sapiens, UniProt P06239), sequence (P06239 whole entry): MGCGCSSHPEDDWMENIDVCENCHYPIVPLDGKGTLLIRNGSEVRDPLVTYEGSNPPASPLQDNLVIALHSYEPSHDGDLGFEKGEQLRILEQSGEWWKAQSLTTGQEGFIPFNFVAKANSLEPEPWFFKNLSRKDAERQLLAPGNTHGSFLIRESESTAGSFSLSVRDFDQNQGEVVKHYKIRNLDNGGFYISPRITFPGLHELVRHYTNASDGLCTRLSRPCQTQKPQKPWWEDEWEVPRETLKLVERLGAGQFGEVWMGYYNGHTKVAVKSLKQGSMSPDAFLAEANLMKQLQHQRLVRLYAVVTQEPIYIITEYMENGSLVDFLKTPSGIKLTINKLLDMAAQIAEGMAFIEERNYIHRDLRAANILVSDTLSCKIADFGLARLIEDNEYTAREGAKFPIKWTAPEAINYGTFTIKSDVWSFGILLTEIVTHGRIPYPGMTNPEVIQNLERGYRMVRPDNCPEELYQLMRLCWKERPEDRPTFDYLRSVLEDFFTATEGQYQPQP
kinases of Table 5 (Homo sapiens, UniProt P11362), sequence (P11362 22-822): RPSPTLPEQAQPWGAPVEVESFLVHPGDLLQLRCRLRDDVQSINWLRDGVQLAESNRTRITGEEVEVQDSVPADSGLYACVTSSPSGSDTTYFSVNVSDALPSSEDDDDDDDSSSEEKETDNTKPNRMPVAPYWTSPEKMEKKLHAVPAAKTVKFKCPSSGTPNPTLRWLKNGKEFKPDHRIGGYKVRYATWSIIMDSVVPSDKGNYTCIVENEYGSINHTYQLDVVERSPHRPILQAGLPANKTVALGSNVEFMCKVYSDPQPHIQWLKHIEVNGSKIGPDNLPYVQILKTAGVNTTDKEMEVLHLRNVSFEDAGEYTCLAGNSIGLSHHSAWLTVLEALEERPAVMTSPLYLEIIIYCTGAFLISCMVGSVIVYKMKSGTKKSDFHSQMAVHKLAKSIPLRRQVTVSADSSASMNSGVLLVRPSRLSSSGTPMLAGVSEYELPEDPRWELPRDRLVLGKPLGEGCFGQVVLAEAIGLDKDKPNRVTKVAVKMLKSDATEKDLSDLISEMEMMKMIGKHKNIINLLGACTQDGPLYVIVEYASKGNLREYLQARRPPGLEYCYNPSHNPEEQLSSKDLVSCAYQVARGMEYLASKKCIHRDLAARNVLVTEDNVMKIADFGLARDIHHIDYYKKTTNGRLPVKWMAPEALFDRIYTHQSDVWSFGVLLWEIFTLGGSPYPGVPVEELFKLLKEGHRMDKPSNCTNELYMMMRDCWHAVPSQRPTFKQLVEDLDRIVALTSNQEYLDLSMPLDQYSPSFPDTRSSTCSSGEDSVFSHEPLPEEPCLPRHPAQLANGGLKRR

Structure (SMILES) | Inhibition Results (Level) (kinases of Table 5 [1]; inhibitor 100 uM) | Inhibition Results (Level) (kinases of Table 5 [2]; [12]) | Inhibition level (kinases of Table 5 [3]) | Inhibition level (kinases of Table 5 [4]) | Inhibition level (kinases of Table 5 [5]; inhibitor 100 uM) | Inhibition level (kinases of Table 5 [6]; [13]) | Inhibition Results (Level) (kinases of Table 5 [7]; inhibitor 100 uM) | Inhibition level (kinases of Table 5 [8]; inhibitor 100 uM) | Inhibition Results (Level) (kinases of Table 5 [9]; inhibitor 100 uM) | Inhibition Results (Level) (kinases of Table 5 [10]) | Inhibition Results (Level) (kinases of Table 5 [11]) | Inhibition Results (Level) (kinases of Table 5 [4]) | Inhibition Results (Level) (kinases of Table 5 [5]; inhibitor 100 uM) | Inhibition Results (Level) (kinases of Table 5 [8]; inhibitor 100 uM) | also measured
N#C/C(=C/c1ccc(O)c(O)c1)C(=O)NCc1ccccc1 [AG 490] | 2 | 2 | 0 | 0 | 0 | 2 | 2 | 2 | 2 | 2 | 2 |  |  |  | 
COc1cc2ncnc(Nc3cccc(Cl)c3)c2cc1OC [AG 1478] | 2 | 1 | 1 | 1 | 0 | 2 | 2 | 2 | 1 | 1 | 1 |  |  |  | 
O=c1c(-c2ccc(O)cc2)coc2cc(O)cc(O)c12 [Genistein] | 2 | 2 | 0 | 0 | 0 | 2 | 2 | 2 | 2 | 2 | 1 |  |  |  | Inhibition Results (Level) (kinases of Table 5 [1]; inhibitor <3.7 mM): 0; Inhibition Results (Level) (kinases of Table 5 [2]; kinase PIM1 (Part I, plate C2, Domain 1), inhibitor <3.7 mM): 0; Inhibition level (kinases of Table 5 [5]; concentration not given): 0; Inhibition level (kinases of Table 5 [6]; [14]): 0; Inhibition Results (Level) (kinases of Table 5 [7]; inhibitor <3.7 mM): 0; Inhibition level (kinases of Table 5 [8]; concentration not given): 1; Inhibition Results (Level) (kinases of Table 5 [9]; inhibitor <3.7 mM): 0
O=S(=O)(NCCNC/C=C/c1ccc(Br)cc1)c1cccc2cnccc12 [H-89] | 2 | 2 |  |  |  | 0 | 2 |  | 2 | 1 | 1 | 1 | 1 | 2 | Inhibition Results (Level) (kinases of Table 5 [3]): 1
CC(C)(C)n1nc(-c2ccc(Cl)cc2)c2c(N)ncnc21 [PP2] |  | 2 | 2 | 2 | 0 | 2 | 2 | 2 | 2 | 2 | 2 |  |  |  | 
O=c1c(O)c(-c2ccc(O)c(O)c2)oc2cc(O)cc(O)c12 [Quercetin] |  |  |  |  |  |  | 0 |  | 0 | 2 | 0 | 0 | 0 | 2 | 
Cn1cc(C2=C(c3cn(CCCSC(=N)N)c4ccccc34)C(=O)NC2=O)c2ccccc21 [Ro-31-8220] | 2 | 0 | 2 | 2 | 0 | 0 | 1 | 2 | 0 | 2 | 2 |  |  |  | Inhibition Results (Level) (kinases of Table 5 [1]; inhibitor 90 uM): 0; Inhibition Results (Level) (kinases of Table 5 [2]; kinase PIM1 (Part I, plate C2, Domain 1), inhibitor 90 uM): 2; Inhibition level (kinases of Table 5 [5]; concentration not given): 2; Inhibition level (kinases of Table 5 [6]; [14]): 2; Inhibition Results (Level) (kinases of Table 5 [7]; inhibitor 90 uM): 2; Inhibition level (kinases of Table 5 [8]; concentration not given): 0; Inhibition Results (Level) (kinases of Table 5 [9]; inhibitor 90 uM): 2
CC(=O)c1c(O)c(C)c(O)c(Cc2c(O)c3c(c(C(=O)/C=C/c4ccccc4)c2O)OC(C)(C)C=C3)c1O [Rottlerin (Mallotoxin)] | 2 | 2 |  |  |  | 2 | 2 |  | 2 | 1 | 1 | 1 | 0 | 2 | Inhibition Results (Level) (kinases of Table 5 [3]): 1
CN[C@@H]1C[C@H]2O[C@@](C)([C@@H]1OC)n1c3ccccc3c3c4c(c5c6ccccc6n2c5c31)C(=O)NC4 [Staurosporine] |  |  |  |  |  |  |  |  |  |  |  |  |  |  | Inhibition Results (Level) (kinases of Table 5 [2]): 2; Inhibition level (kinases of Table 5 [6]): 2; Inhibition Results (Level) (kinases of Table 5 [7]; inhibitor 21.5 uM): 2; Inhibition Results (Level) (kinases of Table 5 [9]; inhibitor 21.5 uM): 2
